Laboratory results reported in paper PMC6274517, “Design, Synthesis and Structure-Activity Relationships of Novel Chalcone-1,2,3-triazole-azole Derivates as Antiproliferative Agents” (Molecules, 2016).
In brackets after ≈: the same amount, converted by molar mass. Like-named read-outs stand apart in the source and are kept apart here.

What was measured:
MCF-7 = conditions: cited from earlier work
K562 cells = system: K562 cells; design: method as in PMID 19837593; conditions: cited from earlier work
SMMC-7721 = system: SMMC-7721; design: method as in PMID 21345546; conditions: cited from earlier work
EC-109 = assay: MTT antiproliferative assay, EC-109; type: cell-based, human; conditions: mean ± SD of three experiments
Description: (§1) In totally, a series of novel chalcone-1,2,3-triazole-azole derivatives were successfully synthesized, and their structures characterized by ^1H-NMR, ^13C-NMR, HRMS. Their in vitro antiproliferative activities were then tested, using a MTT assay, against three selected cancer cell lines (SK-N-SH, EC-109 and MGC-803) and compared with the well-known anticancer drug 5-fluorouracil.
(§2) All synthesized compounds were evaluated for their anticancer activity against three cancer cell lines, MGC-803 (human gastric cancer cell line), SK-N-SH (human neuroendocrine cancer cell line), and […] (human esophageal cancer cell line) using MTT assay method and compared with the well-known anticancer drug 5-fluorouracil.

SK-N-SH = assay: MTT antiproliferative assay, SK-N-SH; type: cell-based, human; conditions: 72 h exposure, mean ± SD of three experiments
Description: as §1, §2

MGC-803 = assay: MTT antiproliferative assay, MGC-803; type: cell-based, human; conditions: mean ± SD of three experiments
Description: as §1, §2

GES-1 = assay: Cytotoxicity against normal GES-1 cells; type: cell-based, human; conditions: for IC50: normal human gastric epithelial cell line, 72 h exposure, mean ± SD of three experiments; for selectivity between cancer and normal cells: MGC-803 versus GES-1
Excerpt: Compounds I-14 and I-21 were further examined for possible cytotoxicity against GES-1 (normal human gastric epithelial cell line).

[1] = system: SK-N-SH, EC-109 and MGC-803; assay: MTT antiproliferative assay, three cancer cell lines together; type: cell-based, human; conditions: range across EC-109, SK-N-SH, read-out: IC50 values, range over the three cancer cell lines
Description: as §1, §2

SK-N-SH cells = assay: Apoptosis analysis with Hoechst-33258 staining; type: cell-based, human; conditions: SK-N-SH cells, 5, 10 and 20 μM; 24 h / 48 h (legend of Figure 5)
Description: To explore cytotoxicity of I-21 in SK-N-SH cells, cell apoptosis was investigated with Hoechst 33258 staining.
Figure 5 Apoptosis analysis with Hoechst-33258 staining after a 48 h treatment of I-21 in SK-N-SH cell line at 5 μM, 10 μM and 20 μM.

[2] = system: Bcl-2 and Bax in SK-N-SH cells; assay: Western blot of Bcl-2 and Bax; type: cell-based, human; conditions: 48 h treatment
Description: Antiproliferative agents that induce apoptosis in cancer cells are always preferred in antitumor drug discovery. Bcl-2 associated proteins have both anti-apoptotic and pro-apoptotic effects in vrious cancer cell lines. For the high potent cytotoxic activity against SK-N-SH cell line, compound I-21 was evaluated the level of Bcl-2 (apoptotic inhibitor) and Bax (apoptotic inducer). […] Further mechanism investigations are under way and will be reported in due course.
Figure 6 Expression of Bcl-2 and Bax in SK-N-SH cells after treatment by compound I-21 for 48 h.

[3] = Homo sapiens, ECa-109, 72 h exposure
[4] = Homo sapiens, MGC-803, 72 h exposure

In the case of `O=C(/C=C/c1ccccc1)c1ccccc1` [Compound 1], the “IC50 MCF-7” value (MCF-7) is given as 6.88 µg/mL (≈ 33 µM).

In the case of `COc1ccc(C(=O)/C=C/c2cc(OC)c(OC)c(OC)c2)cc1OC` [Compound 2], the IC50 (K562 cells) is given as 1.1 µM.

For `CN(C)CCN1C(=O)c2cccc3cc(-n4cc(-c5ccccc5)nn4)cc(c23)C1=O` [Compound 3], the IC50 (MCF-7) is given as 0.348 µM and the IC50 (SMMC-7721) is given as 0.258 µM.

In the case of `O=C(NCc1cn(Cc2cccc(Oc3ccccc3)c2)nn1)c1ccccn1` [Compound 4], the IC50 (MCF-7) is given as 0.046 µM.

`O=c1[nH]cc(F)c(=O)[nH]1` [Compound 5-FU, 5-fluorouracil, reference compound] showed an IC50 (EC-109; [3]) of 10.3 ± 0.32 µM, an IC50 (SK-N-SH; Homo sapiens, SK-N-SH) of 9.85 ± 0.76 µM and an IC50 (MGC-803; [4]) of 7.14 ± 0.28 µM.

Compound `O=C(/C=C/c1ccc(Cl)cc1)c1ccc(OCCCn2cc(CSC3=NCCS3)nn2)cc1` [Compound I-13, (E)-3-(4-Chlorophenyl)-1-(4-(3-(4-(((4,5-dihydrothiazol-2-yl)thio)methyl)-1H-1,2,3-triazol-1-yl)propoxy)phenyl)prop-2-en-1-one] has an IC50 (EC-109; [3]) greater than 100 µM, an IC50 (SK-N-SH; Homo sapiens, SK-N-SH) of 19.3 ± 0.47 µM and an IC50 (MGC-803; [4]) of 37.2 ± 0.85 µM. It also gave a melting point of 151 to 153 °C.

`COc1cc(/C=C/C(=O)c2ccc(OCCCn3cc(CSC4=NCCS4)nn3)cc2)cc(OC)c1OC` [Compound I-14, (E)-1-(4-(3-(4-(((4,5-Dihydrothiazol-2-yl)thio)methyl)-1H-1,2,3-triazol-1-yl)propoxy)phenyl)-3-(3,4,5-trimethoxyphenyl)prop-2-en-1-one] showed an IC50 (EC-109; [3]) of 3.57 ± 0.22 µM, an IC50 (SK-N-SH; Homo sapiens, SK-N-SH) of 5.87 ± 1.05 µM and an IC50 (MGC-803; [4]) of 8.52 ± 0.56 µM. The IC50 (GES-1; GES1) was greater than 64 µM, the “selectivity between cancer and normal cells” value (GES-1) was “good selectivity” and the IC50 ([1]; Homo sapiens) was 3.57 to 8.52 µM. The melting point was 169 to 171 °C.

With `O=C(/C=C/c1cccnc1)c1ccc(OCCCn2cc(CSC3=NCCS3)nn2)cc1` [Compound I-15, (E)-1-(4-(3-(4-(((4,5-Dihydrothiazol-2-yl)thio)methyl)-1H-1,2,3-triazol-1-yl)propoxy)phenyl)-3-(pyridin-3-yl)prop-2-en-1-one] the IC50 (EC-109; [3]) was 42.36 ± 0.18 µM, the IC50 (SK-N-SH; Homo sapiens, SK-N-SH) was 47.3 ± 1.57 µM and the IC50 (MGC-803; [4]) was 63.8 ± 1.17 µM. The melting point was 149 to 151 °C.

`O=C(/C=C/c1cccs1)c1ccc(OCCCn2cc(CSC3=NCCS3)nn2)cc1` [Compound I-16, (E)-1-(4-(3-(4-(((4,5-Dihydrothiazol-2-yl)thio)methyl)-1H-1,2,3-triazol-1-yl)propoxy)phenyl)-3-(thiophen-2-yl)prop-2-en-1-one] gave an IC50 (EC-109; [3]) of 19.3 ± 0.79 µM, an IC50 (SK-N-SH; Homo sapiens, SK-N-SH) of 11.2 ± 0.26 µM and an IC50 (MGC-803; [4]) of 8.69 ± 0.42 µM. The melting point was 104 to 106 °C.

Compound `O=C(/C=C/c1ccc(Cl)cc1)c1ccc(OCCCn2cc(CSc3nc4ccccc4s3)nn2)cc1` [Compound I-17] has an IC50 (EC-109; [3]) of 9.54 ± 0.05 µM, an IC50 (SK-N-SH; Homo sapiens, SK-N-SH) greater than 100 µM and an IC50 (MGC-803; [4]) of 38.2 ± 0.58 µM. It also gave a melting point of 172 to 174 °C.

Compound `O=C(/C=C/c1cccnc1)c1ccc(OCCCn2cc(CSc3nc4ccccc4s3)nn2)cc1` [Compound I-18, (E)-1-(4-(3-(4-((Benzo[d]thiazol-2-ylthio)methyl)-1H-1,2,3-triazol-1-yl)propoxy)phenyl)-3-(pyridin-3-yl)prop-2-en-1-one] has an IC50 (EC-109; [3]) of 24.6 ± 3.8 µM, an IC50 (SK-N-SH; Homo sapiens, SK-N-SH) of 14.8 ± 0.72 µM and an IC50 (MGC-803; [4]) of 6.24 ± 0.05 µM. For the same compound, the melting point was 144 to 146 °C.

With `O=C(/C=C/c1cccs1)c1ccc(OCCCn2cc(CSc3nc4ccccc4s3)nn2)cc1` [Compound I-19, (E)-1-(4-(3-(4-((Benzo[d]thiazol-2-ylthio)methyl)-1H-1,2,3-triazol-1-yl)propoxy)phenyl)-3-(thiophen-2-yl)prop-2-en-1-one] the IC50 (EC-109; [3]) was 38.8 ± 1.05 µM, the IC50 (SK-N-SH; Homo sapiens, SK-N-SH) was 37.8 ± 0.91 µM and the IC50 (MGC-803; [4]) was 24.4 ± 0.71 µM.

`O=C(/C=C/c1ccc(Cl)cc1)c1ccc(OCCCn2cc(CSc3nncs3)nn2)cc1` [Compound I-20, (E)-1-(4-(3-(4-(((1,3,4-Thiadiazol-2-yl)thio)methyl)-1H-1,2,3-triazol-1-yl)propoxy)phenyl)-3-(4-chlorophenyl)prop-2-en-1-one] showed an IC50 (EC-109; [3]) of 5.81 ± 0.21 µM, an IC50 (SK-N-SH; Homo sapiens, SK-N-SH) of 3.75 ± 1.21 µM and an IC50 (MGC-803; [4]) of 46.3 ± 1.64 µM. It also gave a melting point of 143 to 145 °C.

`O=C(/C=C/c1cccnc1)c1ccc(OCCCn2cc(CSc3nncs3)nn2)cc1` [Compound I-22, (E)-1-(4-(3-(4-(((1,3,4-Thiadiazol-2-yl)thio)methyl)-1H-1,2,3-triazol-1-yl)propoxy)phenyl)-3-(pyridin-3-yl)prop-2-en-1-one] gave an IC50 (EC-109; [3]) of 14.6 ± 1.21 µM, an IC50 (SK-N-SH; Homo sapiens, SK-N-SH) of 12.4 ± 0.44 µM and an IC50 (MGC-803; [4]) of 4.45 ± 0.82 µM. For the same compound, the melting point was 146 to 149 °C.

Work on `O=C(/C=C/c1cccs1)c1ccc(OCCCn2cc(CSc3nncs3)nn2)cc1` [Compound I-23, (E)-1-(4-(3-(4-(((1,3,4-Thiadiazol-2-yl)thio)methyl)-1H-1,2,3-triazol-1-yl)propoxy)phenyl)-3-(thiophen-2-yl)prop-2-en-1-one] yielded an IC50 (EC-109; [3]) of 57.2 ± 1.63 µM, an IC50 (SK-N-SH; Homo sapiens, SK-N-SH) of 21 ± 1.81 µM and an IC50 (MGC-803; [4]) of 15.1 ± 0.85 µM.

Work on `Cn1nnnc1SCc1cn(CCCOc2ccc(C(=O)/C=C/c3ccc(Cl)cc3)cc2)nn1` [Compound I-24, (E)-3-(4-Chlorophenyl)-1-(4-(3-(4-(((1-methyl-1H-tetrazol-5-yl)thio)methyl)-1H-1,2,3-triazol-1-yl)propoxy)phenyl)prop-2-en-1-one] yielded an IC50 (EC-109; [3]) of 24.9 ± 1.09 µM, an IC50 (SK-N-SH; Homo sapiens, SK-N-SH) of 28.4 ± 1.59 µM and an IC50 (MGC-803; [4]) of 50.1 ± 0.97 µM. It also gave a melting point of 149 to 150 °C.

For `COc1cc(/C=C/C(=O)c2ccc(OCCCn3cc(CSc4nnnn4C)nn3)cc2)cc(OC)c1OC` [Compound I-25, (E)-1-(4-(3-(4-(((1-Methyl-1H-tetrazol-5-yl)thio)methyl)-1H-1,2,3-triazol-1-yl)propoxy)phenyl)-3-(3,4,5-trimethoxyphenyl)prop-2-en-1-one], the IC50 (EC-109; [3]) was 5.28 ± 0.56 µM, the IC50 (SK-N-SH; Homo sapiens, SK-N-SH) was 6.98 ± 0.4 µM and the IC50 (MGC-803; [4]) was 5.66 ± 0.55 µM. The melting point was 105 to 107 °C.

`Cn1nnnc1SCc1cn(CCCOc2ccc(C(=O)/C=C/c3cccnc3)cc2)nn1` [Compound I-26, (E)-1-(4-(3-(4-(((1-Methyl-1H-tetrazol-5-yl)thio)methyl)-1H-1,2,3-triazol-1-yl)propoxy)phenyl)-3-(pyridin-3-yl)prop-2-en-1-one] gave an IC50 (EC-109; [3]) of 11.8 ± 0.74 µM, an IC50 (SK-N-SH; Homo sapiens, SK-N-SH) of 4.49 ± 0.45 µM and an IC50 (MGC-803; [4]) of 5.56 ± 0.45 µM. For the same compound, the melting point was 151 to 153 °C.

In the case of `Cn1nnnc1SCc1cn(CCCOc2ccc(C(=O)/C=C/c3cccs3)cc2)nn1` [Compound I-27, (E)-1-(4-(3-(4-(((1-Methyl-1H-tetrazol-5-yl)thio)methyl)-1H-1,2,3-triazol-1-yl)propoxy)phenyl)-3-(thiophen-2-yl)prop-2-en-1-one], the IC50 (EC-109; [3]) is reported as greater than 100 µM, the IC50 (SK-N-SH; Homo sapiens, SK-N-SH) is reported as 29.3 ± 0.85 µM and the IC50 (MGC-803; [4]) is reported as 38.1 ± 0.91 µM. It also gave a melting point of 129 to 130 °C.

With “(E)-1-(4-(3-(4-(((1,3,4-Thiadiazol-2-yl)thio)methyl)-1H-1,2,3-triazol-1-yl)propoxy)phenyl)-3-(3,4,5-trimethoxyphenyl)prop-2-en-1-one [Compound I-21]” the IC50 (EC-109; 72 h exposure) was 10.4 ± 0.24 µM, the IC50 (SK-N-SH) was 1.52 ± 0.3 µM and the IC50 (MGC-803; 72 h exposure) was 4.26 ± 0.32 µM. The “selectivity between cancer and normal cells” value (GES-1) was “good selectivity”, the IC50 (GES-1) was 43.7 ± 1.35 µM and the “apoptotic morphological changes (Hoechst 33258 staining)” value (SK-N-SH cells) was “characteristic apoptotic morphological changes”. The “level of Bax” value [2] was “increased the level of Bax”, the “level of Bcl-2” value [2] was “reduced the level of Bcl-2” and the IC50 [1] was 1.52 to 10.4 µM.
